Laboratory results: patent US10506807B2, “Halogen-substituted phenoxyphenylamidines and the use thereof as fungicides” (priority 2015, dated 2019)
Like-named read-outs stand apart in the source and are kept apart here.

How the values were obtained:
soy bean plants = test: Plant compatibility test using soy bean plants; format: in vivo; settings: soy bean plants sprayed, 1000 ppm active compound, evaluated 6 days after application; 0% no damages, 100% totally damaged
Protocol: Plant Compatibility Test Using Soy Bean Plants • Solvent: 24.5 parts by weight of acetone • 24.5 parts by weight of dimethylacetamide • Emulsifier: 1 part by weight of alkylaryl polyglycol ether To produce a suitable preparation of active compound, 1 part by weight of active compound is mixed with the stated amounts of solvent and emulsifier, and the concentrate is diluted with water to the desired concentration. Young plants are sprayed with the preparation of active compound at the stated application rate. The plants are then placed in a greenhouse at approximately 21° C. and a relative atmospheric humidity of approximately 80%. The test is evaluated 6 days after application and comprises plant damages like leaf deformation, chlorosis, necrosis, shoot damage or stunting. The results are summarized in table V. 0% means no damages are observed, while 100% means that the plants are totally damaged.

[1] = Hydrolysis stability test in homogeneous aqueous solution; format: physicochemical
Description: Stability Towards Hydrolysis in Homogeneous Aqueous Solution—Hydrolysis Stability Test The chemical stability towards hydrolysis of the phenylamidines described in the prior art is good but an improved stability may be an advantage during the preparation and formulation processes in a large scale. The improved stability towards hydrolysis was proven by a hydrolysis stability test as described below: To produce a suitable preparation of active compound for the hydrolysis stability test, a 1000 ppm stock solution (1 mg/mL) of active compound in acetonitrile is prepared. Three aliquots of 100 μL are pipetted into HPLC vials and diluted with 750 μL acetonitrile. In each vial 850 μL of the appropriate buffer solution (pH4, pH7 and pH9, CertiPUR, Fa. Merck) is added. The buffer containing HPLC vials are incubated in a heated sample tray at 50° C. for 24 hours. The amount A of the active compound is analyzed by HPLC (UV-peak areas at 210 nm) at eight points in time t: 0 min, 140 min, 350 min, 560 min, 770 min, 980 min, 1190 min, 1400 min. The half-life time (T1/2) of each active compound is calculated via linear regression by using the following equations (first order degradation assumed): [formula] [formula] In table III the results of the hydrolysis stability test are shown for the compounds (I-01), (I-02), (I-03) and (I-04) at various pH-values. […] 337 known from WO2008/110278. […] This increased stability will be of advantage during the preparation and formulation processes in a large scale compared to known amidines. The data are to be seen merely by way of example and are not limiting for the purposes of the invention.

Phakopsora pachyrhizi = test: In vivo preventive test on Phakopsora (soybeans); settings: 100 ppm of active ingredient, preventive spray on soybeans, evaluated 7 days after inoculation
Protocol: Example: In Vivo Preventive Test on Phakopsora Test (Soybeans)
• Solvent: 24.5 parts by weight of acetone • 24.5 parts by weight of dimethylacetamide • Emulsifier: 1 part by weight of alkylaryl polyglycol ether
To produce a suitable preparation of active compound, 1 part by weight of active compound is mixed with the stated amounts of solvent and emulsifier, and the concentrate is diluted with water to the desired concentration.
To test for preventive activity, young plants are sprayed with the preparation of active compound at the stated rate of application. After the spray coating has dried on, the plants are inoculated with an aqueous spore suspension of the causal agent of soybean rust (Phakopsora pachyrhizi) and stay for 24 h without light in an incubation cabinet at approximately 24° C. and a relative atmospheric humidity of 95%.
The plants remain in the incubation cabinet at approximately 24° C. and a relative atmospheric humidity of approximately 80% and a day/night interval of 12 h.
The test is evaluated 7 days after the inoculation. 0% means an efficacy which corresponds to that of the untreated control, while an efficacy of 100% means that no disease is observed.

[2] = Photolysis stability test; format: physicochemical
Description: Stability Towards Photolysis—Photolysis Stability Test
The stability towards photolysis of the phenylamidines described in the prior art is good but an improved stability towards photolysis may be an advantage as it could offer a longer lasting efficacy when applied to plants by foliar application. The improved stability towards photolysis was proven by a […] as described below: To produce a suitable preparation of active compound for the photolysis stability test, a 1000 ppm stock solution (1 mg/mL) of active compound in acetonitrile is prepared. Aliquots of 25 μL of this stock solution are pipetted in three wells of a Bio-one microtiter plate (MTP) UVStar 96 (Fa. Greiner, Art. No. 655801). The MTP is dried overnight in the dark and then irradiated at 30° C. and 480 W/m^2 with a UV irradiation device SUNTEST XLS+ or SUNTEST CPS (Fa. Atlas). The amount A of the active compound is analyzed by HPLC (UV-peak areas at 210 nm) at five points in time t: 0 h, 2 h, 4 h, 6 h, 24 h by using the following method: 200 μL acetonitrile is added in the respective well of the MTP and the MTP is sealed with a Bio-one sealing foil, viewseal 80/140 mm (Fa. Greiner, Art. No. 676070). The MTPs are sonicated for 3 minutes and analysed by HPLC. The half-life time (T) of each active compound is calculated via linear regression by using the following equations (first order degradation assumed): […]
In table IV the results of the photolysis stability test are shown for the compounds (I-01), (I-02), (I-03) and (I-04). […] This increased chemical stability towards photolysis will be of advantage as it will offer a longer lasting efficacy when applied to plants by foliar application compared to known amidines. The data are to be seen merely by way of example and are not limiting for the purposes of the invention.

[3] = Log P by HPLC on reversed phase columns (EEC directive 79/831 Annex V.A8); format: physicochemical; settings: LC-UV
Protocol: Measurement of Log P values was performed according to EEC directive 79/831 Annex V.A8 by HPLC (High Performance Liquid Chromatography) on reversed phase columns with the following methods: • ^[a] Log P value is determined by measurement of LC-UV, in an acidic range, with 0.1% formic acid in water and acetonitrile as eluent (linear gradient from 10% acetonitrile to 95% acetonitrile). • ^[b] Log P value is determined by measurement of LC-UV, in a neutral range, with 0.001 molar ammonium acetate solution in water and acetonitrile as eluent (linear gradient from 10% acetonitrile to 95% acetonitrile). […] Lambda-max-values were determined using UV-spectra from 200 nm to 400 nm and the peak values of the chromatographic signals.

[4] = pH 7, read-out: T1/2 (pH 7) (converted)
[5] = pH 9, read-out: T1/2 (pH 9) (converted)
[6] = acidic range, 0.1% formic acid in water and acetonitrile as eluent, read-out: LogP [a]
[7] = neutral range, 0.001 molar ammonium acetate solution in water and acetonitrile as eluent, read-out: LogP [b]

SMILES | Necrosis in % (soy bean plants) [%] | half-life at 58.8 µg/mL [1, 4] [days] | half-life at 58.8 µg/mL [1, 5] [days] | efficacy (Phakopsora pachyrhizi) | half-life at 25 µg/well [2] [days] | chromatographic logP [3, 6] | chromatographic logP [3, 7]
CCN(C)/C=N/c1cc(C)c(Oc2ccccc2F)cc1C [Compound no.337] | 90 |  |  |  |  |  | 
CCN(C)/C=N/c1cc(C)c(Oc2ccccc2)cc1C [Compound no. 1] | 90 |  |  |  |  |  | 
CCN(C)/C=N/c1cc(C)c(Oc2ccccc2F)cc1Cl [Example I-01, N′-[2-chloro-4-(2-fluorophenoxy)-5-methylphenyl]-N-ethyl-N-methylimidoformamide] | 20 | 2.17 | 1.96 | at least 70% | > 8.33 | 1.66 | 
CCN(C)C=Nc1cc(C)c(Oc2ccccc2F)cc1C(F)F [Example I-02, N′-[2-(difluoromethyl)-4-(2-fluorophenoxy)-5-methylphenyl]-N-ethyl-N-methylimidoformamide] |  | 6.67 | 5.83 |  | 7.71 | 1.76 | 
CCN(C)C=Nc1cc(C)c(Oc2ccccc2F)cc1Br [Example I-03, N′-[2-bromo-4-(2-fluorophenoxy)-5-methylphenyl]-N-ethyl-N-methylimidoformamide] |  | 2.83 | 2.12 |  | 7.42 | 1.66 | 4.53
CCN(C)C=Nc1cc(C)c(Oc2ccccc2Cl)cc1Br [Example I-04, N′-[2-bromo-4-(2-chlorophenoxy)-5-methylphenyl]-N-ethyl-N-methylimidoformamide] |  | 2.67 | 2.42 |  | > 8.33 | 1.84 | 4.97
CCN(C)C=Nc1cc(C)c(Oc2ccccc2Cl)cc1Cl [Example I-05, N′-[2-chloro-4-(2-chlorophenoxy)-5-methylphenyl]-N-ethyl-N-methylimidoformamide] |  | 2.12 | 1.96 |  |  | 1.58 | 
CCN(C)C=Nc1cc(C)c(Oc2ccccc2I)cc1Cl [Example I-06, N′-[2-chloro-4-(2-iodophenoxy)-5-methylphenyl]-N-ethyl-N-methylimidoformamide] |  |  |  |  |  | 1.78 | 
CCN(C)C=Nc1cc(C)c(Oc2ccccc2Br)cc1Br [Example I-07, N′-[2-bromo-4-(2-bromophenoxy)-5-methylphenyl]-N-ethyl-N-methylimidoformamide] |  | 2.62 | 2.38 |  |  | 1.81 | 
Cc1cc([N+](=O)[O-])c(C(F)F)cc1Oc1ccccc1F [VI-02, 1-(Difluoromethyl)-5-(2-fluorophenoxy)-4-methyl-2-nitrobenzene] |  |  |  |  |  | 3.97 | 
Cc1cc([N+](=O)[O-])c(Br)cc1Oc1ccccc1Cl [VI-04, 4-Bromo-2-(2-chlorophenoxy)-1-methyl-5-nitrobenzene] |  |  |  |  |  | 4.68 | 
Cc1cc(N)c(Br)cc1Oc1ccccc1Cl [VIII-04, 2-Bromo-4-(2-chlorophenoxy)-5-methylaniline] |  |  |  |  |  |  | 3.53
